# Earlier results as cited in patent US20030104065A1, “Method of preparing solid dispersions” (priority 2002, published 2003).
# Settings: local anesthetic effect, versus lidocaine
smiles,measurement,value
CCCN1CCCC[C@H]1C(=O)Nc1c(C)cccc1C [ropivacaine],therapeutic potency relative to lidocaine,about 50 times
